Source: US6752986B2, “Composition and methods for affecting metallocorrinoid uptake” (The Cleveland Clinic Foundation, priority 2001, dated 2004)

Columns and labels:
[1] = tested on: NCTC929; conditions: NCTC929, high levels of Cbl; cited from earlier work
[2] = tested on: L1210; conditions: L1210, high levels of Cbl; cited from earlier work
[3] = tested on: CCRF-CEM; conditions: high levels of Cbl; cited from earlier work
[4] = tested on: P388D1; conditions: P388D1, high levels of Cbl; cited from earlier work
[5] = tested on: subcutaneous NIH-OVCAR-3 tumors; assay: Intraperitoneal NO-Cbl treatment of established subcutaneous NIH-OVCAR-3 tumors; type: in vivo, nude mice
[6] = tested on: five human hematological and eight solid tumor cell lines; conditions: cited from earlier work
[7] = tested on: WM9 human melanoma; assay: SRB anti-proliferative cell survival assay, WM9; type: cell-based; conditions: WM9 versus NIH-OVCAR-3
Description: WM9 human melanoma was evaluated after 4 days growth.
Cells (2×10^3) were seeded in 96-well plates. Data points represent mean of eight replicates. (n=8). A control plate was fixed 4 hr after seeding (to allow cells to attach) to determine the initial seeding density (Aini). This was defined as 0% growth. To the wells of the seeded experimental plate, IFN-β was added and incubation continued for 3-5 days. Untreated cell controls were included. Growth obtained with this control was defined as 100% (Afin). To determine cell number, cells were fixed with 10% trichloroacetic acid at 4° C. for 1 h. They were stained with 0.4% sulforhodamine B prepared in 1% acetic acid at 25° C. for 1 h (27). The wells were washed with 1% acetic acid. Bound dye was eluted with 100 μl of 10 mM Tris-HCl, ph 10.5 and quantitated in a microplate reader at 570 nm. Growth in IFN-β-treated wells (experimental=exp) was expressed as a percentage of untreated control growth (mean±SEM).
%Control growth=100%×(Aexp−Aini)/(Afin−Aini)
%STD=100%×(STDexp/(Afin−Aini))
%SEM=100%×(SEMexp/(Afin−Aini) ) where SEM=STD/✓n

[8] = tested on: NIH-OVCAR-3 ovarian carcinoma; assay: SRB anti-proliferative cell survival assay, NIH-OVCAR-3; type: cell-based, human; conditions: concentration used in the Annexin V assay for 48 hrs

| Compound | cell proliferation [1] | cell proliferation [2] | cell proliferation [3] | cell proliferation [4] | mean volume of untreated tumors compared to NO-Cbl treated tumors ([5]; at the end of the study) [fold] | decrease in volume of treated tumors ([5]; during the treatment period) [fold] | tumor response ([5]; intraperitoneal NO-Cbl, established subcutaneous NIH-OVCAR-3 tumors) | ID50 lower in tumor cell lines compared to benign cells (fibroblasts and endothelial cells) [6] | ID50 of WM9 cells compared to NIH-OVCAR-3 [7] | ID25 [8] [µM] |
| --- | --- | --- | --- | --- | --- | --- | --- | --- | --- | --- |
| C/C1=C2/[N-][C@H]([C@H](CC(N)=O)[C@@]2(C)CCC(=O)NC[C@@H](C)OP(=O)([O-])O[C@H]2[C@@H](O)[C@@H](n3cnc4cc(C)c(C)cc43)O[C@@H]2CO)[C@]2(C)N=C(/C(C)=C3N=C(/C=C4N=C1[C@@H](CCC(N)=O)C\4(C)C)[C@@H](CCC(N)=O)[C@]\3(C)CC(N)=O)[C@@H](CCC(N)=O)[C@]2(C)CC(N)=O.[Co] [Cbl, cobalamin] | inhibited | inhibited | inhibited | inhibited | – | – | – | – | – | – |
| Nitrosylcobalamin [NO-Cbl] | – | – | – | – | 18 | 4 | tumor regression | 5-100 fold | higher ID50 | 10 |
